# Measurements as given in the supplement of paper PMC11208160.
# Assay: recombinant UMI read abundance after kanamycin selection (control-corrected) (log10(CPM+1)); higher = more efficient recombination; extreme values may be limits of the assay; sequences stand for … in AGTGCAGAGAAAATCGGCCAGTTTTCTCTGCCTGCAGTCCGCATGCCGTGGGACCCCTTGGGTTCTAACCTGTTGCCTAGATTTATGCAGCGGACTGCCTTTCTCCCAAAGTGATAAACCGG…AGGTTGGTTTCACT; site = the 11-nt donor
# Procedure, shortened: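 In a pooled Escherichia coli screen for the IS621 bridge recombinase, donor and donor-binding-loop pairs were each placed with a 12-nt UMI on a plasmid bearing a promoterless kanamycin gene. This library was co-electroporated with a target plasmid encoding a fixed target and T7-inducible recombinase, and cells were plated either on IPTG (0.07 mM) plus kanamycin or without selection, in two replicates each. Recombinant UMIs were PCR-amplified across the donor–target junction and sequenced, and counts were converted to CPM, averaged over replicates, scaled by control-derived factors and reported as log10(CPM+1).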
row,Sequence,recombinant UMI read abundance (log10)
1,ATCCTAGCATGGACCGGTTTTCCCGGTAATCCGTATTTGTT (site AGCCTAGCTAA),0.0169
2,ATCCTAGCATGGACCGGTTTTCCCGGTAATCCGTATTTGTT (site ATCCTAGCTAA),0.0177
3,ATCCTTGCATGGACCGGTTTTCCCGGTAATCCGTATTTGAT (site ATCCTTGCTAT),2.19
4,ATCGACCCATGGACCGGTTTTCCCGGTAATCCGTATTTGGT (site ATCGACCCTAC),0
5,ATCGACCCATGGACCGGTTTTCCCGGTAATCCGTATTTGTG (site ATCGACCCTCA),0.0241
6,ATCGCTGCATGGACCGGTTTTCCCGGTAATCCGTATTTGCC (site ATCGCTGCTGG),2.27
7,ATCGGGTCATGGACCGGTTTTCCCGGTAATCCGTATTTGGT (site ATCGGGTCTAC),1.85
8,ATCGTATCATGGACCGGTTTTCCCGGTAATCCGTATTTGTC (site ATCGTATCTGA),3.35
9,ATCGTCCCATGGACCGGTTTTCCCGGTAATCCGTATTTGAT (site ATCGTCCCTAT),0.563
10,ATCTACCCATGGACCGGTTTTCCCGGTAATCCGTATTTGGC (site ATCTACCCTGC),0.584
11,ATCTAGACATGGACCGGTTTTCCCGGTAATCCGTATTTGGG (site AACTAGACTCC),0.0333
12,ATCTAGACATGGACCGGTTTTCCCGGTAATCCGTATTTGGG (site ACCTAGACTCC),0.00659
13,ATCTAGACATGGACCGGTTTTCCCGGTAATCCGTATTTGGG (site AGCTAGACTCC),0.313
14,ATCTAGACATGGACCGGTTTTCCCGGTAATCCGTATTTGGG (site ATCTAGACTCC),0.0102
15,ATCTATACATGGACCGGTTTTCCCGGTAATCCGTATTTGAT (site ATCTATACTAT),1.02
16,ATCTATACATGGACCGGTTTTCCCGGTAATCCGTATTTGAT (site ATCTATACTCT),0.147
17,ATCTATACATGGACCGGTTTTCCCGGTAATCCGTATTTGAT (site ATCTATACTGT),0
18,ATCTATACATGGACCGGTTTTCCCGGTAATCCGTATTTGAT (site ATCTATACTTT),0.00795
19,ATCTATCCATGGACCGGTTTTCCCGGTAATCCGTATTTGCT (site ATCTATCCTAG),1.24
20,ATCTCTGCATGGACCGGTTTTCCCGGTAATCCGTATTTGCT (site ATCTCTGCTAG),1.73
21,ATCTGCCCATGGACCGGTTTTCCCGGTAATCCGTATTTGCT (site ATCTGCCCTAG),0.548
22,ATCTGCTCATGGACCGGTTTTCCCGGTAATCCGTATTTGGA (site ATCTGCTCTTC),1.49
23,ATCTGGGCATGGACCGGTTTTCCCGGTAATCCGTATTTGGT (site ATCTGGGCTAC),0.162
24,ATCTTGGCATGGACCGGTTTTCCCGGTAATCCGTATTTGGG (site ATCTTGGCTCC),0.448
25,ATGAAGACATGGACCGGTTTTCCCGGTAATCCGTATTTGCA (site AAGAAGACTTG),1.29

row,Sequence,recombinant UMI read abundance (log10)
1,ATGAAGACATGGACCGGTTTTCCCGGTAATCCGTATTTGCA (site ACGAAGACTTG),2.34
2,ATGAAGACATGGACCGGTTTTCCCGGTAATCCGTATTTGCA (site AGGAAGACTTG),1.02
3,ATGAAGACATGGACCGGTTTTCCCGGTAATCCGTATTTGCA (site ATGAAGACTTG),2.64
4,ATGAAGACATGGACCGGTTTTCCCGGTAATCCGTATTTGGA (site AGGAAGACTTG),0
5,ATGAAGACATGGACCGGTTTTCCCGGTAATCCGTATTTGGA (site ATGAAGACTTC),1.52
6,ATGACAACATGGACCGGTTTTCCCGGTAATCCGTATTTGGA (site ATGACAACTTC),1.22
7,ATGACGCCATGGACCGGTTTTCCCGGTAATCCGTATTTGGA (site ATGACGCCTTC),0.0104
8,ATGAGCACATGGACCGGTTTTCCCGGTAATCCGTATTTGGC (site ATGAGCACTGC),2.98
9,ATGATAACATGGACCGGTTTTCCCGGTAATCCGTATTTGCC (site ATGATAACTGG),3.06
10,ATGCAGACATGGACCGGTTTTCCCGGTAATCCGTATTTGTC (site ATGCAGACTGA),2.43
11,ATGCCGCCATGGACCGGTTTTCCCGGTAATCCGTATTTGGG (site ATGCCGCCTCC),0.0227
12,ATGCGTTCATGGACCGGTTTTCCCGGTAATCCGTATTTGAC (site ATGCGTTCTGT),2.37
13,ATGCGTTCATGGACCGGTTTTCCCGGTAATCCGTATTTGCG (site ATGCGTTCTCG),1.96
14,ATGCTACCATGGACCGGTTTTCCCGGTAATCCGTATTTGCT (site ATGCTACCTAG),0
15,ATGCTACCATGGACCGGTTTTCCCGGTAATCCGTATTTGCT (site CTGCTACCTAG),0
16,ATGCTACCATGGACCGGTTTTCCCGGTAATCCGTATTTGCT (site GTGCTACCTAG),0
17,ATGCTACCATGGACCGGTTTTCCCGGTAATCCGTATTTGCT (site TTGCTACCTAG),0
18,ATGGCAACATGGACCGGTTTTCCCGGTAATCCGTATTTGTG (site ATGGCAACTCA),0.02
19,ATGGGCCCATGGACCGGTTTTCCCGGTAATCCGTATTTGTC (site ATGGGCCCTGA),0.504
20,ATGGTCGCATGGACCGGTTTTCCCGGTAATCCGTATTTGTT (site ATGGTCGCTAA),1.29
21,ATGGTGTCATGGACCGGTTTTCCCGGTAATCCGTATTTGCT (site ATGGTGTCTAG),3.4
22,ATGTAGGCATGGACCGGTTTTCCCGGTAATCCGTATTTGGA (site ATGTAGGCTAC),0.451
23,ATGTAGGCATGGACCGGTTTTCCCGGTAATCCGTATTTGGA (site ATGTAGGCTCC),0.209
24,ATGTAGGCATGGACCGGTTTTCCCGGTAATCCGTATTTGGA (site ATGTAGGCTGC),1.58
25,ATGTAGGCATGGACCGGTTTTCCCGGTAATCCGTATTTGGA (site ATGTAGGCTTC),1

row,Sequence,recombinant UMI read abundance (log10)
1,ATGTATACATGGACCGGTTTTCCCGGTAATCCGTATTTGAC (site ATATATACTGT),2.59
2,ATGTATACATGGACCGGTTTTCCCGGTAATCCGTATTTGAC (site ATCTATACTGT),0.457
3,ATGTATACATGGACCGGTTTTCCCGGTAATCCGTATTTGAC (site ATGTATACTGT),3.18
4,ATGTATACATGGACCGGTTTTCCCGGTAATCCGTATTTGAC (site ATTTATACTGT),0.661
5,ATGTCCGCATGGACCGGTTTTCCCGGTAATCCGTATTTGCC (site ATGTCCGCTGG),2.45
6,ATGTGGGCATGGACCGGTTTTCCCGGTAATCCGTATTTGTA (site ATGTGGGCTTA),2.32
7,ATGTTGGCATGGACCGGTTTTCCCGGTAATCCGTATTTGGC (site ATGTAGGCTGC),1.71
8,ATGTTGGCATGGACCGGTTTTCCCGGTAATCCGTATTTGGC (site ATGTCGGCTGC),0.939
9,ATGTTGGCATGGACCGGTTTTCCCGGTAATCCGTATTTGGC (site ATGTGGGCTGC),0.332
10,ATGTTGGCATGGACCGGTTTTCCCGGTAATCCGTATTTGGC (site ATGTTGGCTGC),2.68
11,ATTAAGACATGGACCGGTTTTCCCGGTAATCCGTATTTGAA (site ATTAAGACTTT),1.43
12,ATTACGACATGGACCGGTTTTCCCGGTAATCCGTATTTGGG (site ATTACGACTCC),0.00852
13,ATTATTACATGGACCGGTTTTCCCGGTAATCCGTATTTGCA (site ATTATTACTTG),1.8
14,ATTCATGCATGGACCGGTTTTCCCGGTAATCCGTATTTGGT (site ATTCATGCTAC),0.729
15,ATTCCATCATGGACCGGTTTTCCCGGTAATCCGTATTTGGA (site ATTCCATCTTC),0.345
16,ATTCGTCCATGGACCGGTTTTCCCGGTAATCCGTATTTGGT (site ATTCGTCCTAC),0.0259
17,ATTGACACATGGACCGGTTTTCCCGGTAATCCGTATTTGGT (site ATTGAAACTAC),0.168
18,ATTGACACATGGACCGGTTTTCCCGGTAATCCGTATTTGGT (site ATTGACACTAC),0.911
19,ATTGACACATGGACCGGTTTTCCCGGTAATCCGTATTTGGT (site ATTGAGACTAC),0.811
20,ATTGACACATGGACCGGTTTTCCCGGTAATCCGTATTTGGT (site ATTGATACTAC),0.459
21,ATTGAGACATGGACCGGTTTTCCCGGTAATCCGTATTTGCT (site ATTGAGACTAA),0.627
22,ATTGAGACATGGACCGGTTTTCCCGGTAATCCGTATTTGCT (site ATTGAGACTAC),0.379
23,ATTGAGACATGGACCGGTTTTCCCGGTAATCCGTATTTGCT (site ATTGAGACTAG),2.42
24,ATTGAGACATGGACCGGTTTTCCCGGTAATCCGTATTTGCT (site ATTGAGACTAT),0.827
25,ATTGAGACATGGACCGGTTTTCCCGGTAATCCGTATTTGGC (site ATTGAGACTAC),0.0133
